Assays:
Type in all cases: cell-based
[1] = tested on: phosphorylation of ERK1/2 and STAT3/5; test: Western blot of phosphorylation in HL60 cells; conditions: RAS-mutated HL60 cells; 5 μM
Description: FIGS. 3A-3D show the inhibition of the signaling activity and proliferation of HL-60 AML cells by Syk-cSH2 inhibitors. […] DMSO was used as a negative control and GAPDH as a gel loading control. […] (c) Inhibition of phosphorylation of Syk, STAT3/5 and ERK1/2 in patient-derived primary AML cells by WC36. Cells were cultured overnight in the presence of CD34+ cytokine supplement. DMSO was used as a negative control. Representative data from one (Patient 1) of four patient samples are shown here. (d) Inhibition of the proliferation of four patient AML cells by WC36 measured by the colony growth assay. The number of colonies after WC36 treatment was normalized to the enumerated colonies after DMSO treatment.
(§1) Cells were seeded at a density of 3.0×10^5 cells/well prior to incubation with inhibitors. Cells were incubated with 1-5 μM of Syk inhibitors overnight and stimulated with different antibodies: IgG2 for AML cells, IgM for Raji B cells, and OKT3 (Biolegend) for Jurkat cells. The cells were lysed in NP40 lysis buffer (50 mM Tris, pH 7.5, 150 mM NaCl, 1 mM EDTA, 1% NP40, 10% glycerol, 10 mM NaF, 10 mM Na3VO4, and the protease inhibitor cocktail) at 4° C. and the cell debris was removed by centrifugation. Samples were analyzed by SDS-PAGE. Proteins were separated and transferred to Immobilon-P polyvinylidene difluoride membrane (Millipore Sigma). The membrane was blocked with 5% bovine serum albumin for 1 h and incubated overnight at 4° C. with various antibodies (1:1000 dilution for all antibodies). After the unbound antibodies were removed by washing with 0.1% Tris buffer saline with 0.1% Tween20, the membranes were incubated with the horseradish peroxidase secondary antibody (1:5000 dilution) for 1 h at room temperature. The membranes were washed three more times with 0.1% Tris buffer saline with 0.1% Tween20 to remove the unbound horseradish peroxidase secondary antibody before imaging. The chemiluminescence intensity of protein bands in the gel was analyzed and documented by the Azure 500Q Imaging System.

[2] = tested on: phosphorylation of Syk, STAT3/5 and ERK1/2; test: Western blot of IgG2-stimulated phosphorylation in MV4-11 AML cells; conditions: MV4-11 cells, 5 μM overnight
Description: FIGS. 2A-2D show the inhibition of the signaling activity and proliferation of MV4-11 AML cells by Syk-cSH2 inhibitors. […] GAPDH was used as a gel loading control. […] Imax and IC50 values were determined by non-linear least-squares analysis of data using the equation: I=Imax/(1+IC50/[inhibitor]) where I indicates % inhibition at a given inhibitor concentration ([inhibitor]). (c) Inhibition of IgG2-stimulated phosphorylation of Syk, STAT3/STAT5 and ERK1/2 in entospletinib-resistant MV-4-11 cells by 5 μM of WC35, WC36, and WC38.
as §1

[3] = molecular target: T1, pZAP70 (Homo sapiens, UniProt P43403); test: Western blot inhibition of ZAP70 phosphorylation in Jurkat T cells; conditions: for Emax: Immunoblotting, pZAP70, Western blot assay in Jurkat T cells, read-out: Imax (%); for inhibition of ZAP-70 phosphorylation: Jurkat T cells stimulated by OKT3, 5 μM overnight
T1 construct: host or cells: Jurkat T cells, OKT3-stimulated
T1 sequence (P43403 1-619): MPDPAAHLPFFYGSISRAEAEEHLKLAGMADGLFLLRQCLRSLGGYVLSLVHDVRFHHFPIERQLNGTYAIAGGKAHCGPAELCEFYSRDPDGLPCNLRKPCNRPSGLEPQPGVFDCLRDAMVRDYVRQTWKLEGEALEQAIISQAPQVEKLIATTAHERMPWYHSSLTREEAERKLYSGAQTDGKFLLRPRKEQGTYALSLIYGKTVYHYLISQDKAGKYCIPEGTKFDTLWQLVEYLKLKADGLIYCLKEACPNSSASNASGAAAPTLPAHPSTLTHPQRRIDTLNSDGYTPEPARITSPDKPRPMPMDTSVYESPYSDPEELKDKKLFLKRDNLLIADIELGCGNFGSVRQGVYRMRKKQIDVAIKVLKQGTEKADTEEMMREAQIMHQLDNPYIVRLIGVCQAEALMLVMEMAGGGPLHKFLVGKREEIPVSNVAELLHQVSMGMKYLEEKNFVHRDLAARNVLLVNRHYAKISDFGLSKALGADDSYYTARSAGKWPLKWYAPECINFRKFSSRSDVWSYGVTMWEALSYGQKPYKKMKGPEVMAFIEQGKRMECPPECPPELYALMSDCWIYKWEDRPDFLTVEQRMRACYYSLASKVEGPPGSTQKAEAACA
Description: (a) Cellular efficacy of WC35, WC36, and WC38 was determined by dose-dependent inhibition of Syk phosphorylation in Raji B cells. (b) Imax and IC50 values were determined by non-linear least-squares analysis of data using the equation: […] Each data represents average ±s.d. from triplicate measurements. […] Jurkat T cells were stimulated by OKT3. Cells were seeded at a density of 3.0×10^5 cells/well prior to incubation with inhibitors. […] IgG2 for AML cells, IgM for Raji B cells, and OKT3 (Biolegend) for Jurkat cells. […] Samples were analyzed by SDS-PAGE. Proteins were separated and transferred to Immobilon-P polyvinylidene difluoride membrane (Millipore Sigma). […] The chemiluminescence intensity of protein bands in the gel was analyzed and documented by the Azure […] Imaging System.

## [N-]=[N+]=C(C(=O)OC1CCCCC1)C(Nc1ncccn1)c1ccco1 (racemic) [WC35, Cyclohexyl 2-diazo-3-(furan-2-yl)-3-(pyrimidin-2-ylamino)propanoate]
[1]
  inhibition of phosphorylation of ERK1/2 and STAT3/5: less active then WC36
[2]
  inhibition of phosphorylation of Syk, STAT3/5 and ERK1/2: less active than entospletinib for both Syk and ERK1/2 inhibition
[3]
  Emax: < 10%
  inhibition of ZAP-70 phosphorylation: did not inhibit phosphorylation and activation of ZAP-70

## [N-]=[N+]=C(C(=O)OC1CCCCC1)C(Nc1ncccn1)c1c[nH]c2ccccc12 (racemic) [WC36, Cyclohexyl 2-diazo-3-(1H-indol-3-yl)-3-(pyrimidin-2-ylamino)propanoate]
[1]
  inhibition of phosphorylation of ERK1/2 and STAT3/5: potent against phosphorylation of ERK1/2 and STAT3
[2]
  inhibition of phosphorylation of Syk, STAT3/5 and ERK1/2: suppressed phosphorylation of Syk and STAT3/5 as potently as entospletinib but were modestly less active than entospletinib for ERK1/2 inhibition
[3]
  Emax: < 10%
  inhibition of ZAP-70 phosphorylation: did not inhibit phosphorylation and activation of ZAP-70

## [N-]=[N+]=C(C(=O)OC1CCCCC1)C(Nc1ncccn1)c1ccc[nH]1 (racemic) [WC38, Cyclohexyl 2-diazo-3-(pyrimidin-2-ylamino)-3-(1H-pyrrol-2-yl)propanoate]
[1]
  inhibition of phosphorylation of ERK1/2 and STAT3/5: less active then WC36
[2]
  inhibition of phosphorylation of Syk, STAT3/5 and ERK1/2: suppressed phosphorylation of Syk and STAT3/5 as potently as entospletinib but were modestly less active than entospletinib for ERK1/2 inhibition
[3]
  Emax: < 10%
  inhibition of ZAP-70 phosphorylation: did not inhibit phosphorylation and activation of ZAP-70

— patent US20250346582A1, “SPLEEN TYROSINE KINASE INHIBITORS AND METHODS OF USE THEREOF” (THE BOARD OF TRUSTEES OF THE UNIVERSITY OF ILLINOIS, priority 2022, published 2025)
